Reference: patent publication US20240327334A1, “Covalent Inhibitors As Antiviral Agents” (Enanta Pharmaceuticals, Inc., priority 2022, published 2024)

These molecules were tested against SARS-CoV-2 Papain-like (PLpro) protease (Severe acute respiratory syndrome coronavirus 2, UniProt P0DTD1) (assay: SARS-CoV-2 Papain-like (PLpro) protease biochemical enzyme inhibition assay (ubiquitin-fluorophore substrate, Ub-R110)). Conditions: Ub-R110 substrate; run in duplicate; read-out: PLpro IC50.

`O=C(NCC#Cc1cscn1)C(=O)NCc1ccccc1C(=O)NC1(c2ccc3ccccc3c2)CC1` [Example 165] and `O=C(NCC#Cc1ccccn1)C(=O)NCc1ccccc1C(=O)NC1(c2ccc3ccccc3c2)CC1` [Example 174] cannot be ordered by IC50: < 0.1 µM for the first, < 0.1 µM for the second.

`N#CN1CCC[C@H]1CNC(=O)C(=O)NCc1ccccc1C(=O)NC1(c2cccc3ccccc23)CC1` [Example 504] and `N#CN1CCC(C(=O)NCc2ccccc2C(=O)NC2(c3cccc4ccccc34)CC2)C1` (stereo not shown) [Example 115] cannot be ordered by IC50: < 0.1 µM for the first, < 0.1 µM for the second.

`N#Cc1nc(C#CCNC(=O)C(=O)NCc2ccccc2C(=O)NC2(c3ccc4ccccc4c3)CC2)ccc1Cl` [Example 194] and `O=C(NC/C=C/S(=O)(=O)c1ccccc1)C(=O)NCc1ccccc1C(=O)NC1(c2ccc3ccccc3c2)CC1` [Example 173] cannot be ordered by IC50: < 0.1 µM for the first, < 0.1 µM for the second.

`C[C@@H](NC(=O)c1c(F)cccc1CNC(=O)C(=O)NCC#N)c1cccc2ccccc12` [Example 29] and `N#CCNC(=O)C(=O)NCc1ccccc1C(=O)NC1(c2ccc3c4c(cccc24)C(=O)N3)CC1` [Example 434] cannot be ordered by IC50: < 0.1 µM for the first, < 0.1 µM for the second.

`CC[C@@H](C#Cc1nccs1)NC(=O)C(=O)NCc1ccccc1C(=O)NC1(c2ccc3nn(C)cc3c2)CC1` [Example 146] and `Cn1cc2cc(C3(NC(=O)c4ccccc4CNC(=O)C(=O)NCC#Cc4nccs4)CC3)ccc2n1` [Example 337] cannot be ordered by IC50: < 0.1 µM for the first, < 0.1 µM for the second.

First: C#CCNC(=O)C(=O)NCc1ccccc1C(=O)NC1(c2cc(-c3ccccc3)cc(C(F)(F)F)c2)CC1 [Example 469]
Second: N#CCNC(=O)C(=O)NCc1ccccc1C(=O)NC1(c2cc(-c3cnn(C(F)F)c3)cc(C(F)(F)F)c2)CC1 [Example 472]
The IC50 of the first is lower: < 0.1 µM for the first, 0.1 to 1 µM for the second. The first is the more potent here.

`Cc1nn(C)c(C)c1-c1cc(C2(NC(=O)c3ccccc3CNC(=O)C(=O)NCC#Cc3nccs3)CC2)cc2ccccc12` [Example 299] and `Cc1nn(C)c(C)c1-c1cc(C2(NC(=O)c3ccccc3CNC(=O)C(=O)NCC#Cc3nccs3)CC2)c2ccccc2c1` [Example 300] cannot be ordered by IC50: < 0.1 µM for the first, < 0.1 µM for the second.

`C#CCNC(=O)C(=O)NCc1ccc(C(=O)N2CC(F)(F)C2)cc1C(=O)NC1(c2ccc(F)c3ccccc23)CC1` [Example 61] and `C#CCNC(=O)C(=O)NCc1ccccc1C(=O)NC1(c2ccc(F)c(-c3cnn(C)c3)c2)CC1` [Example 232] cannot be ordered by IC50: < 0.1 µM for the first, < 0.1 µM for the second.

`CC(C)(O)Cn1cc(-c2cc(F)cc(C3(NC(=O)c4ccccc4CNC(=O)C(=O)NCC#Cc4ncccc4Cl)CC3)c2)cn1` [Example 281] and `C[C@@H](C#Cc1ncccc1Cl)NC(=O)C(=O)NCc1ccccc1C(=O)NC1(c2cc(F)cc(-c3cnn(CC(C)(C)O)c3)c2)CC1` [Example 280] cannot be ordered by IC50: < 0.1 µM for the first, < 0.1 µM for the second.

`COCCN(C)C(=O)/C=C/CNC(=O)C(=O)NCc1ccccc1C(=O)NC1(c2cccc3ccccc23)CC1` [Example 556] and `O=C(/C=C/CNC(=O)C(=O)NCc1ccccc1C(=O)NC1(c2cccc3ccccc23)CC1)NC1CC1` [Example 541] fall in the same range of IC50: 0.1 to 1 µM for the first, 0.1 to 1 µM for the second.

`Cc1nn(C)c(C)c1-c1cc(F)cc(C2(NC(=O)c3ccccc3CNC(=O)C(=O)NCC#Cc3nccs3)CC2)c1F` [Example 295] and `Cc1nn(C)cc1-c1cc(F)cc(C2(NC(=O)c3ccccc3CNC(=O)C(=O)NCC#N)CC2)c1` [Example 233] cannot be ordered by IC50: < 0.1 µM for the first, < 0.1 µM for the second.

`O=C(/C=C/CNC(=O)C(=O)NCc1ccccc1C(=O)NC1(c2cccc3ccccc23)CC1)NCC(F)(F)F` [Example 572] and `O=C(NC/C=C/C(=O)N1CCCO1)C(=O)NCc1ccccc1C(=O)NC1(c2cccc3ccccc23)CC1` [Example 568] fall in the same range of IC50: 0.1 to 1 µM for the first, 0.1 to 1 µM for the second.

First: Cn1cc2cc(C3(NC(=O)c4ccccc4CNC(=O)C(=O)NCC#Cc4ccc(C#N)cc4OC(F)(F)F)CC3)ccc2n1 [Example 214]
Second: N#CCNC(=O)C(=O)NCc1ccccc1C(=O)NC1(c2ccc(F)c(Br)c2)CC1 [Example 217]
The IC50 of the first is lower: < 0.1 µM for the first, 0.1 to 1 µM for the second. The first is the more potent here.

`Cc1n[nH]c(C)c1-c1cc(C2(NC(=O)c3ccccc3CNC(=O)C(=O)NCC#N)CC2)c2ccccc2c1` [Example 288] and `C#CCNC(=O)C(=O)NCc1ccccc1C(=O)NC1(c2cc(F)cc(-c3cnn(C)c3)c2)CC1` [Example 238] cannot be ordered by IC50: < 0.1 µM for the first, < 0.1 µM for the second.

In the case of `O=C(NCC#Cc1ncc(F)s1)C(=O)NCc1ccccc1C(=O)NC1(c2cc(F)cc(-c3cnn(C4CC4)c3)c2)CC1` [Example 249], the IC50 is reported as < 0.1 µM.

These molecules were tested on SARS-CoV-2 replicon (assay: microbe, parasite or virus in culture). Conditions: Severe acute respiratory syndrome coronavirus 2, Huh-7.
Format: cell-based

First: O=C(NCC#Cc1cscn1)C(=O)NCc1ccccc1C(=O)NC1(c2ccc3ccccc3c2)CC1 [Example 165]
Second: O=C(NCC#Cc1ccccn1)C(=O)NCc1ccccc1C(=O)NC1(c2ccc3ccccc3c2)CC1 [Example 174]
The EC50 of the first is higher: 1 to 10 µM for the first, < 1 µM for the second. The second is the more potent here.

`N#CN1CCC[C@H]1CNC(=O)C(=O)NCc1ccccc1C(=O)NC1(c2cccc3ccccc23)CC1` [Example 504] and `N#CN1CCC(C(=O)NCc2ccccc2C(=O)NC2(c3cccc4ccccc34)CC2)C1` (stereo not shown) [Example 115] cannot be ordered by EC50: < 1 µM for the first, < 1 µM for the second.

`N#Cc1nc(C#CCNC(=O)C(=O)NCc2ccccc2C(=O)NC2(c3ccc4ccccc4c3)CC2)ccc1Cl` [Example 194] and `O=C(NC/C=C/S(=O)(=O)c1ccccc1)C(=O)NCc1ccccc1C(=O)NC1(c2ccc3ccccc3c2)CC1` [Example 173] cannot be ordered by EC50: < 1 µM for the first, < 1 µM for the second.

`C[C@@H](NC(=O)c1c(F)cccc1CNC(=O)C(=O)NCC#N)c1cccc2ccccc12` [Example 29] and `N#CCNC(=O)C(=O)NCc1ccccc1C(=O)NC1(c2ccc3c4c(cccc24)C(=O)N3)CC1` [Example 434] fall in the same range of EC50: 1 to 10 µM for the first, 1 to 10 µM for the second.

`CC[C@@H](C#Cc1nccs1)NC(=O)C(=O)NCc1ccccc1C(=O)NC1(c2ccc3nn(C)cc3c2)CC1` [Example 146] and `Cn1cc2cc(C3(NC(=O)c4ccccc4CNC(=O)C(=O)NCC#Cc4nccs4)CC3)ccc2n1` [Example 337] cannot be ordered by EC50: < 1 µM for the first, < 1 µM for the second.

Compared with `C#CCNC(=O)C(=O)NCc1ccccc1C(=O)NC1(c2cc(-c3ccccc3)cc(C(F)(F)F)c2)CC1` [Example 469], `N#CCNC(=O)C(=O)NCc1ccccc1C(=O)NC1(c2cc(-c3cnn(C(F)F)c3)cc(C(F)(F)F)c2)CC1` [Example 472] is higher in EC50: 1 to 10 µM for the first, > 10 µM for the second.

`Cc1nn(C)c(C)c1-c1cc(C2(NC(=O)c3ccccc3CNC(=O)C(=O)NCC#Cc3nccs3)CC2)cc2ccccc12` [Example 299] and `Cc1nn(C)c(C)c1-c1cc(C2(NC(=O)c3ccccc3CNC(=O)C(=O)NCC#Cc3nccs3)CC2)c2ccccc2c1` [Example 300] cannot be ordered by EC50: < 1 µM for the first, < 1 µM for the second.

`C#CCNC(=O)C(=O)NCc1ccc(C(=O)N2CC(F)(F)C2)cc1C(=O)NC1(c2ccc(F)c3ccccc23)CC1` [Example 61] and `C#CCNC(=O)C(=O)NCc1ccccc1C(=O)NC1(c2ccc(F)c(-c3cnn(C)c3)c2)CC1` [Example 232] cannot be ordered by EC50: < 1 µM for the first, < 1 µM for the second.

`CC(C)(O)Cn1cc(-c2cc(F)cc(C3(NC(=O)c4ccccc4CNC(=O)C(=O)NCC#Cc4ncccc4Cl)CC3)c2)cn1` [Example 281] and `C[C@@H](C#Cc1ncccc1Cl)NC(=O)C(=O)NCc1ccccc1C(=O)NC1(c2cc(F)cc(-c3cnn(CC(C)(C)O)c3)c2)CC1` [Example 280] cannot be ordered by EC50: < 1 µM for the first, < 1 µM for the second.

First: COCCN(C)C(=O)/C=C/CNC(=O)C(=O)NCc1ccccc1C(=O)NC1(c2cccc3ccccc23)CC1 [Example 556]
Second: O=C(/C=C/CNC(=O)C(=O)NCc1ccccc1C(=O)NC1(c2cccc3ccccc23)CC1)NC1CC1 [Example 541]
The EC50 of the first is lower: 1 to 10 µM for the first, > 10 µM for the second. The first is the more potent here.

Going from `Cc1nn(C)c(C)c1-c1cc(F)cc(C2(NC(=O)c3ccccc3CNC(=O)C(=O)NCC#Cc3nccs3)CC2)c1F` [Example 295] to `Cc1nn(C)cc1-c1cc(F)cc(C2(NC(=O)c3ccccc3CNC(=O)C(=O)NCC#N)CC2)c1` [Example 233], the EC50 rises from < 1 µM to > 10 µM.

First: O=C(/C=C/CNC(=O)C(=O)NCc1ccccc1C(=O)NC1(c2cccc3ccccc23)CC1)NCC(F)(F)F [Example 572]
Second: O=C(NC/C=C/C(=O)N1CCCO1)C(=O)NCc1ccccc1C(=O)NC1(c2cccc3ccccc23)CC1 [Example 568]
The EC50 of the first is higher: > 10 µM for the first, 1 to 10 µM for the second. The second is the more potent here.

First: Cn1cc2cc(C3(NC(=O)c4ccccc4CNC(=O)C(=O)NCC#Cc4ccc(C#N)cc4OC(F)(F)F)CC3)ccc2n1 [Example 214]
Second: N#CCNC(=O)C(=O)NCc1ccccc1C(=O)NC1(c2ccc(F)c(Br)c2)CC1 [Example 217]
The EC50 of the first is lower: < 1 µM for the first, > 10 µM for the second.

Compared with `Cc1n[nH]c(C)c1-c1cc(C2(NC(=O)c3ccccc3CNC(=O)C(=O)NCC#N)CC2)c2ccccc2c1` [Example 288], `C#CCNC(=O)C(=O)NCc1ccccc1C(=O)NC1(c2cc(F)cc(-c3cnn(C)c3)c2)CC1` [Example 238] is lower in EC50: 1 to 10 µM for the first, < 1 µM for the second. The second is the more potent here.

With `O=C(NCC#Cc1ncc(F)s1)C(=O)NCc1ccccc1C(=O)NC1(c2cc(F)cc(-c3cnn(C4CC4)c3)c2)CC1` [Example 249] the EC50 was < 1 µM.
